According to ChEMBL document CHEMBL3860026, “Depsidones from Lichens as Natural Product Inhibitors of M-Phase Phosphoprotein 1, a Human Kinesin Required for Cytokinesis” (J Nat Prod, 2016):
Activity calls are given as the source filed them. The rule behind the calls is not given here.

What was measured:
[1] = biological target: T1, Kinesin-like protein KIF20B (Homo sapiens, UniProt Q96Q89); experiment: Inhibition of basal ATPase activity of N-terminal His6-tagged/SUMO-fused human MPP1 motor domain (57 to 491 residues) expressed in Escherichia coli BL21 CodonPlus in presence of 0.1% Tween-20 by pyruvate kinase/lactate dehydrogenase-linked assay
[2] = Cytotoxicity against human BxPC3 cells assessed as growth inhibition after 72 hrs by Alamar Blue assay; assay type: functional, cell-based; conditions: BXPC-3, 72 h
[3] = Intrinsic clearance in mouse liver microsomes assessed per mg of protein at 3 uM after 5 to 60 mins by LC-MS/MS method; assay type: ADME; conditions: read-out: CLH
[4] = biological target: Centromere-associated protein E (Homo sapiens, UniProt Q02224); experiment: Inhibition of basal ATPase activity of human CENP-E by pyruvate kinase/lactate dehydrogenase-linked assay
[5] = biological target: T1, Kinesin-like protein KIF20B; conditions: 1 to 20 uM
[6] = biological target: T1, Kinesin-like protein KIF20B; experiment: Inhibition of basal ATPase activity of N-terminal His6-tagged/SUMO-fused human MPP1 motor domain (2 to 477 residues) expressed in Escherichia coli BL21 CodonPlus in presence of 0.1% Tween-20 by pyruvate kinase/lactate dehydrogenase-linked assay
[7] = biological target: T1, Kinesin-like protein KIF20B; experiment: Inhibition of microtubule-stimulated ATPase activity of N-terminal His6-tagged/SUMO-fused human MPP1 motor domain (2 to 477 residues) expressed in Escherichia coli BL21 CodonPlus by pyruvate kinase/lactate dehydrogenase-linked assay
[8] = Cytotoxicity against human UM-UC-3 cells assessed as growth inhibition after 72 hrs by Alamar Blue assay; assay type: functional, cell-based; conditions: UMUC3, 72 h
[9] = biological target: T1, Kinesin-like protein KIF20B; experiment: Inhibition of microtubule-stimulated ATPase activity of N-terminal His6-tagged/SUMO-fused human MPP1 motor domain (57 to 491 residues) expressed in Escherichia coli BL21 CodonPlus by pyruvate kinase/lactate dehydrogenase-linked assay

T1 sequence (Q96Q89 whole entry, the tested form may be a part): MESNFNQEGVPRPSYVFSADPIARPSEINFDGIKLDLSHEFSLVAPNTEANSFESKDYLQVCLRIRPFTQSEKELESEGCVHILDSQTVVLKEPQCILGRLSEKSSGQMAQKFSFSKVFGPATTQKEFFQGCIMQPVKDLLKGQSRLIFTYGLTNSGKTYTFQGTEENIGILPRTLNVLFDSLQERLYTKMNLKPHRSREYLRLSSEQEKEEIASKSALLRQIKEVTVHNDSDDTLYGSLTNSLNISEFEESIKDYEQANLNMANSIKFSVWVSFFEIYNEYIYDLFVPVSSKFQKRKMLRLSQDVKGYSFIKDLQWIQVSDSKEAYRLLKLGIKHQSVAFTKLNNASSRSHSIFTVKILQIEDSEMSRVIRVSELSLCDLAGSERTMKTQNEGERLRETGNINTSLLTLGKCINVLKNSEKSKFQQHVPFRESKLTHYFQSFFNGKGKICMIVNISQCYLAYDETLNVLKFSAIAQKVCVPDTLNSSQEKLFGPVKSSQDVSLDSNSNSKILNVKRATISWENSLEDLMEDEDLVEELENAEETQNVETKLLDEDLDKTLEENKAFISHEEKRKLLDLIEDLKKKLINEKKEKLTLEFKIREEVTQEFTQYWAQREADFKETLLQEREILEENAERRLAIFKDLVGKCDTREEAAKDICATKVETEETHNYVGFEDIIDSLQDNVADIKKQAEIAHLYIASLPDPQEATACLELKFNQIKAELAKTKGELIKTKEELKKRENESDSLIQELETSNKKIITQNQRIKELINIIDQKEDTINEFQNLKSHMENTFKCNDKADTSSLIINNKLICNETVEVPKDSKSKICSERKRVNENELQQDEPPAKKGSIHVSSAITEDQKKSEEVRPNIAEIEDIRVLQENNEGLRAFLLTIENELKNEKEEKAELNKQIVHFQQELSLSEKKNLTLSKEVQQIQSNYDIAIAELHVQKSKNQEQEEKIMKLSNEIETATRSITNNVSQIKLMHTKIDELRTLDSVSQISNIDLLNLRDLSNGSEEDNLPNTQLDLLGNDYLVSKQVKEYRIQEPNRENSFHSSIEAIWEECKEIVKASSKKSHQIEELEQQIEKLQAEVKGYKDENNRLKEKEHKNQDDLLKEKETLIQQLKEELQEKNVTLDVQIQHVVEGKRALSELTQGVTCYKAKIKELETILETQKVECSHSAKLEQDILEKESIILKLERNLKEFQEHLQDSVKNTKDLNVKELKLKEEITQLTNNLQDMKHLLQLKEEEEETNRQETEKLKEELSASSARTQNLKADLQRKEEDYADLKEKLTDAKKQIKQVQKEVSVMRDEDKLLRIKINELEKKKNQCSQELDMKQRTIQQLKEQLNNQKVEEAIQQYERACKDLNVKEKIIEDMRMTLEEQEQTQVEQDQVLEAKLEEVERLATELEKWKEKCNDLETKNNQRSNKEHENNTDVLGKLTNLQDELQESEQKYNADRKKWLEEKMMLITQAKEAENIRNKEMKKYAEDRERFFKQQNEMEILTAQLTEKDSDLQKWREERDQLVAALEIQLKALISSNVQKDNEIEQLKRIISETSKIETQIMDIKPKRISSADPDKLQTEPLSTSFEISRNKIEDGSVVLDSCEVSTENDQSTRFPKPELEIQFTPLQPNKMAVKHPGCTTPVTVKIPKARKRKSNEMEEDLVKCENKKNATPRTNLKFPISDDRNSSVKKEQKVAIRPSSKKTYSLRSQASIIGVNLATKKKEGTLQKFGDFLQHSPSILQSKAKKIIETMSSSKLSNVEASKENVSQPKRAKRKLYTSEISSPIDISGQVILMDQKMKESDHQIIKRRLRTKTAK
Centromere-associated protein E, sequence (Q02224 whole entry): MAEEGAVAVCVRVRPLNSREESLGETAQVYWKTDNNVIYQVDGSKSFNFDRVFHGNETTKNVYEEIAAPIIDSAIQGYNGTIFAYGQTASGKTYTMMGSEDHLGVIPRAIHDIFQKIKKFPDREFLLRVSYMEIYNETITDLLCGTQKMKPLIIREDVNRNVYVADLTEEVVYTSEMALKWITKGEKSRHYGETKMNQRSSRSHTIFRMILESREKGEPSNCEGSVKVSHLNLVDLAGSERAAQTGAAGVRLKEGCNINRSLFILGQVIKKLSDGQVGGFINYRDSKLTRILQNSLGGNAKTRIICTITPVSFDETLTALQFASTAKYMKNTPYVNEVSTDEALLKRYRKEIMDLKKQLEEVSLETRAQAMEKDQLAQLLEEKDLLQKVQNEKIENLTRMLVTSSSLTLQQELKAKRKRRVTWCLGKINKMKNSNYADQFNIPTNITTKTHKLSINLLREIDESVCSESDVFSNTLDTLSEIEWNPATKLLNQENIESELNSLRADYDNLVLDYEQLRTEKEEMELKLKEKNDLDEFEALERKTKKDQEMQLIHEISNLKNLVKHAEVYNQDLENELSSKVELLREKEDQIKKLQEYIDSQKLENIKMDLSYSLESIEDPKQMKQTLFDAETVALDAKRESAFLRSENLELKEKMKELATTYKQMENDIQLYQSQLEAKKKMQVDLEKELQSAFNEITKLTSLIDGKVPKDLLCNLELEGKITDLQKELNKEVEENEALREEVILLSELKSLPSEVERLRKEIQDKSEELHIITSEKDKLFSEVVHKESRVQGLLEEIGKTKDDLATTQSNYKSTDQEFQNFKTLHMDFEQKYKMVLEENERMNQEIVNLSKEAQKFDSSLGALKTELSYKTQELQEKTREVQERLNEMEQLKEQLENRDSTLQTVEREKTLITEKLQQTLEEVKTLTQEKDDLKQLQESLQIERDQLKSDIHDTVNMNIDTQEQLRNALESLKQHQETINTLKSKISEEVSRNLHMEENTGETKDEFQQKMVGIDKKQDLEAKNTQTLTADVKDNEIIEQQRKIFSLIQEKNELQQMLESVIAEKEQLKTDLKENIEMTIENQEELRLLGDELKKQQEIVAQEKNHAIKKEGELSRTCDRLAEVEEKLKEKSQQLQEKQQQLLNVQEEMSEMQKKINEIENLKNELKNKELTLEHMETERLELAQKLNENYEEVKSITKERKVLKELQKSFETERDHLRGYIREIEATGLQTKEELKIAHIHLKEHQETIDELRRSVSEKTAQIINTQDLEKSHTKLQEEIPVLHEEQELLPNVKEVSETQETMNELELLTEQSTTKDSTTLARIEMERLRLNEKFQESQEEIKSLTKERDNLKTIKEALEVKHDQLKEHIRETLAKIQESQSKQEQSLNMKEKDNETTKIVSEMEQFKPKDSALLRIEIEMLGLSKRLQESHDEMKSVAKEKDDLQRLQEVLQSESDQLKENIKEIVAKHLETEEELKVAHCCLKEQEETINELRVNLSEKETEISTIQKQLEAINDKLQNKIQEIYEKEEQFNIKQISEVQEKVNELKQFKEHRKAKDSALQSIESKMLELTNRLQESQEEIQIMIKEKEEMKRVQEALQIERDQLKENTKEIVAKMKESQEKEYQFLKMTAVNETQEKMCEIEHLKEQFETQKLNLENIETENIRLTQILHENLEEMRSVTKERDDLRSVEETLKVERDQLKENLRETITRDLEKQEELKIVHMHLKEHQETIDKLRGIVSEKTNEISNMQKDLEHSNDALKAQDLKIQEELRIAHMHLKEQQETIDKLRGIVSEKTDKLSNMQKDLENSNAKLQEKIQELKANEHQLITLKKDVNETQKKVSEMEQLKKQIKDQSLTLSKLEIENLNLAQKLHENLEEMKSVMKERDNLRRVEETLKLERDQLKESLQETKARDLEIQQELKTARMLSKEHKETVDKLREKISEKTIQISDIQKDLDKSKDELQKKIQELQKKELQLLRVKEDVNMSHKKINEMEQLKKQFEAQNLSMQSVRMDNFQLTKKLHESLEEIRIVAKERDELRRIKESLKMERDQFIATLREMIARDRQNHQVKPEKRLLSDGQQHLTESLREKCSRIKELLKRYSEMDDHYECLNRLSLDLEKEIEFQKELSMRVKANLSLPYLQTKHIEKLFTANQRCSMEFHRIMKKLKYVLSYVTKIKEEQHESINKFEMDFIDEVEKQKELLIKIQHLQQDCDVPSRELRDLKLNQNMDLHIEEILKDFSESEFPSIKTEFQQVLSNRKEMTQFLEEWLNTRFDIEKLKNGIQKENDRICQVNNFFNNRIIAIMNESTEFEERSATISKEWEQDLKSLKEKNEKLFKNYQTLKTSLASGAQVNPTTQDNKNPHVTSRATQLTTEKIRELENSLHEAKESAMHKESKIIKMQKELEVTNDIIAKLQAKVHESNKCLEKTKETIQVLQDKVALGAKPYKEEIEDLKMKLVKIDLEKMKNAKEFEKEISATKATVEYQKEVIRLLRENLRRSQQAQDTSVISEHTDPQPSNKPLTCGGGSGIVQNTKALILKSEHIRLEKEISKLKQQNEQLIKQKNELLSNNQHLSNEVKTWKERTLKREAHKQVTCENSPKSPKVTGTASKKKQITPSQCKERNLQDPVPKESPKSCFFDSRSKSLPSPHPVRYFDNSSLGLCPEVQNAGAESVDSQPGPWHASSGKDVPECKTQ

Structure (SMILES): CCCCCC(=O)Cc1cc(O)cc2c1C(=O)Oc1cc(O)c(C(=O)O)c(CCCCC)c1O2 [PHYSODIC ACID]
- inhibition [1]: Active
- EC50 [2]: 37.3 µM
- microsomal CLint at 3 µM [3]: 61.6 µL/min/mg
- IC50 [4]: 29.6 µM
- inhibition [5]: Active
- inhibition [6]: Active
- IC50 [7]: 4.6 µM
- Imax [7]: 95%
- EC50 [8]: 31.8 µM
- IC50 [9]: 5.8 µM
- Imax [9]: 90%
